Measured values as given in ChEMBL document CHEMBL1135943, “Modifications and structure-activity relationships at the 2-position of 4-sulfonamidopyrimidine derivatives as potent endothelin antagonists” (Bioorg Med Chem Lett, 2002).
≈ marks a conversion by molar mass, not a printed value.

Experiments:
[1] = Water solubility at pH 7.4; format: physicochemical
[2] = target: T1, Endothelin receptor type B (Rattus norvegicus, UniProt P21451); assay: In vitro inhibition of [125 I]ET-1 binding to Endothelin B receptor (ETB-receptor) in rat cerebellum membranes; format: cell membranes, Membrane
T1 sequence (P21451 whole entry): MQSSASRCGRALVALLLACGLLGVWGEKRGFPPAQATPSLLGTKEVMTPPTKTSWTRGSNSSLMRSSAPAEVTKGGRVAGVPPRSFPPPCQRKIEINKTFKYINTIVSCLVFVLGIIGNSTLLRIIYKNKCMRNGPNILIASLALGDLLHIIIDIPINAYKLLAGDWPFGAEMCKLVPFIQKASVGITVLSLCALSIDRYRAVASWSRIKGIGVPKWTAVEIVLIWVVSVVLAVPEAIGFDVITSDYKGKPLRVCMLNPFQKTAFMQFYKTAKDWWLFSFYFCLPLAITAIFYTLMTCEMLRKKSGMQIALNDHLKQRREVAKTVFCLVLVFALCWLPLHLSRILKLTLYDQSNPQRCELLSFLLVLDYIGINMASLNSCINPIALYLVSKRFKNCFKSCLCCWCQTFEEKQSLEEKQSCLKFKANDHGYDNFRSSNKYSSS

[3] = target: T2, Endothelin-1 receptor (Sus scrofa, UniProt Q29010); assay: In vitro inhibition of [125 I]ET-1 binding to Endothelin A receptor in porcine aortic membrane.; format: cell membranes
T2 sequence (Q29010 whole entry): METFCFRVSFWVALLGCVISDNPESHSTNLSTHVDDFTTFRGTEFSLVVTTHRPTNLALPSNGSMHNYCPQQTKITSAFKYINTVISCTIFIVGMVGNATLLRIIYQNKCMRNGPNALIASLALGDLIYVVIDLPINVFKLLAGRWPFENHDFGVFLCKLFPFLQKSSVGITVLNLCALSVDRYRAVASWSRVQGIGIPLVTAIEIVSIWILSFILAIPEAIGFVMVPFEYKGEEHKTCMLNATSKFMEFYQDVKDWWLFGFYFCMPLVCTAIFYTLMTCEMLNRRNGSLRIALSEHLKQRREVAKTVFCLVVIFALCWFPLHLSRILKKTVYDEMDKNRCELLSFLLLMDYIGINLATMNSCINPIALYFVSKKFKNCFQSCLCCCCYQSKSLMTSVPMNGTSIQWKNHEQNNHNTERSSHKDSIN

[4] = Water solubility at pH 7.5; format: physicochemical

Compound	IC50 [3] [nM]	further results
COc1ccccc1Oc1c(NS(=O)(=O)c2ccc(C(C)(C)C)cc2)ncnc1OCCOc1ncc(Br)cn1	–	solubility [1]: 160 µg/mL (≈ 254 µM); IC50 [2]: > 1 nM
Cc1ccc(-c2c(NS(=O)(=O)c3ccc(C(C)(C)C)cc3)ncnc2OCCOc2ncc(Br)cn2)cc1	< 0.001	solubility [4]: 1.6 µg/mL (≈ 2.67 µM)
Cc1ccc(-c2c(NS(=O)(=O)c3ccc(C(C)(C)C)cc3)nc(-c3cccs3)nc2OCCOc2ncc(Br)cn2)cc1	3.9	–
COc1ccccc1Oc1c(NS(=O)(=O)c2ccc(C(C)(C)C)cc2)nc(SCCO)nc1OCCOc1ncc(Br)cn1	0.15	–
COc1ccccc1Oc1c(NS(=O)(=O)c2ccc(C(C)(C)C)cc2)nc(N2CCC(O)CC2)nc1OCCOc1ncc(Br)cn1	0.0025	solubility [1]: 2570 µg/mL (≈ 3520 µM); IC50 [2]: > 1 nM
COc1ccccc1Oc1c(NS(=O)(=O)c2ccc(C(C)(C)C)cc2)nc(NCCO)nc1OCCOc1ncc(Br)cn1	0.0053	solubility [1]: 7320 µg/mL (≈ 10600 µM); IC50 [2]: > 1 nM
CCCc1nc(NS(=O)(=O)c2ccc(C(C)(C)C)cc2)c(-c2ccc(C)cc2)c(OCCOc2ncc(Br)cn2)n1	1.6	–
Cc1ccc(-c2c(NS(=O)(=O)c3ccc(C(C)(C)C)cc3)nc(-c3ccccn3)nc2OCCOc2ncc(Br)cn2)cc1	0.043	–
CNCCNc1nc(NS(=O)(=O)c2ccc(C(C)(C)C)cc2)c(Oc2ccccc2OC)c(OCCOc2ncc(Br)cn2)n1	> 10	–
Cc1ccc(-c2c(NS(=O)(=O)c3ccc(C(C)(C)C)cc3)nc(-c3ccccc3)nc2OCCOc2ncc(Br)cn2)cc1	> 10	–
COc1ccccc1Oc1c(NS(=O)(=O)c2ccc(C(C)(C)C)cc2)nc(SCCC(=O)O)nc1OCCOc1ncc(Br)cn1	10	–
COc1ccccc1Oc1c(NS(=O)(=O)c2ccc(C(C)(C)C)cc2)nc(N2CCN(C)CC2)nc1OCCOc1ncc(Br)cn1	0.45	–
COc1ccccc1Oc1c(NS(=O)(=O)c2ccc(C(C)(C)C)cc2)nc(NCCCO)nc1OCCOc1ncc(Br)cn1	> 10	–
Cc1ccc(-c2c(NS(=O)(=O)c3ccc(C(C)(C)C)cc3)nc(C(C)C)nc2OCCOc2ncc(Br)cn2)cc1	1.1	–

The next lines start with results.

IC50 [3] [nM]	Compound	further results
> 10	COc1ccccc1Oc1c(NS(=O)(=O)c2ccc(C(C)(C)C)cc2)nc(C(F)(F)F)nc1OCCOc1ncc(Br)cn1	–
2.7	COc1ccccc1Oc1c(NS(=O)(=O)c2ccc(C(C)(C)C)cc2)nc(C)nc1OCCOc1ncc(Br)cn1	–
0.2	COc1ccccc1Oc1c(NS(=O)(=O)c2ccc(C(C)(C)C)cc2)nc(OCCO)nc1OCCOc1ncc(Br)cn1	–
> 10	COc1ccccc1Oc1c(NS(=O)(=O)c2ccc(C(C)(C)C)cc2)nc(N)nc1OCCOc1ncc(Br)cn1	–
> 10	COc1ccccc1Oc1c(NS(=O)(=O)c2ccc(C(C)(C)C)cc2)nc(N(C)CCO)nc1OCCOc1ncc(Br)cn1	–
0.026	CCCc1nc(NS(=O)(=O)c2ccc(C(C)(C)C)cc2)c(Oc2ccccc2OC)c(OCCOc2ncc(Br)cn2)n1	–
> 10	COc1nc(NS(=O)(=O)c2ccc(C(C)(C)C)cc2)c(Oc2ccccc2OC)c(OCCOc2ncc(Br)cn2)n1	–
